# From ChEMBL document CHEMBL4420076, “Amylin and calcitonin receptor agonist” (2017)
# pEC50, pIC50: −log10 of the molar value. Numbered stars: 1 amine (or outer) side, 2 acyl side, 3 side chain; on linkers, the order of the positions; unused ones are H or OH. Peptide text beside a SMILES is read from it. * marks the point of attachment. C18 diacid = O=C(O)CCCCCCCCCCCCCCCCC(=O)*; γGlu = O=C(O)[C@H](CCC(=O)[*:2])N[*:1]; C14 diacid = O=C(O)CCCCCCCCCCCCC(=O)*
# Legend:
# [1] = biological target: T1, Amylin receptor AMY3; CALCR/RAMP3 (Homo sapiens, UniProt O60896+P30988); test: Agonist activity at human amylin receptor expressed in BHK570 cells co-expressing RAMP3 assessed as increase in intracellular cAMP concentration incubated for 3 hrs in absence of albumin by CRE luciferase reporter gene assay; type: functional, cell-based
# T1 sequence (P30988 whole entry): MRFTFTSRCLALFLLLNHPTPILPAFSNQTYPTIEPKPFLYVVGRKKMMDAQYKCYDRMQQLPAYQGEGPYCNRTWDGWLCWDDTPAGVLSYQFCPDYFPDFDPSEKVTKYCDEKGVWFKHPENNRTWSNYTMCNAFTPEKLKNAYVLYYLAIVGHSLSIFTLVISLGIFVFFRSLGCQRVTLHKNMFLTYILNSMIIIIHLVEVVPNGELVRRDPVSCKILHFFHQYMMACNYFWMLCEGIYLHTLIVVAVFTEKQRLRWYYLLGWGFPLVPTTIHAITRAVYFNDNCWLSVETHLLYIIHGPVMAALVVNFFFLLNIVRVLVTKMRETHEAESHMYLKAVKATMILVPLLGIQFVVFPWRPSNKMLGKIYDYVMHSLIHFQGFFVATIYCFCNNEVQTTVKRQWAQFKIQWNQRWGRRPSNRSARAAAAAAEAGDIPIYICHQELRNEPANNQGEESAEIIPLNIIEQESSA
# T1 sequence (O60896 whole entry): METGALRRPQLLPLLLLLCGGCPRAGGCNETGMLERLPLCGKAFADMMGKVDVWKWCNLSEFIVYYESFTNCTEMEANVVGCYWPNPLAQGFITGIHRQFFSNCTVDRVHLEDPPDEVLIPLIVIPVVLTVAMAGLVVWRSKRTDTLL
# [2] = biological target: T2, Calcitonin receptor (Homo sapiens, UniProt P30988); test: Agonist activity at human calcitonin receptor expressed in BHK570 cells assessed as increase in intracellular cAMP concentration incubated for 3 hrs in absence of albumin by CRE luciferase reporter gene assay; type: functional, cell-based
# T2 sequence (P30988 whole entry): T1 sequence (P30988 whole entry)
# [3] = Solubility in 100 mM glycylglycine buffer at pH 3.0 incubated for 18 hrs by UPLC analysis; type: physicochemical
# [4] = Solubility in 100 mM glycylglycine buffer at pH 4.0 incubated for 18 hrs by UPLC analysis; type: physicochemical
# [5] = Solubility in 100 mM bistrispropane buffer at pH 6.0 incubated for 18 hrs by UPLC analysis; type: physicochemical
# [6] = Solubility in 100 mM glycylglycine buffer at pH 5.0 incubated for 18 hrs by UPLC analysis; type: physicochemical
# [7] = Solubility in 100 mM bistrispropane buffer at pH 6.5 incubated for 18 hrs by UPLC analysis; type: physicochemical
# [8] = Solubility in 100 mM bistrispropane buffer at pH 7.0 incubated for 18 hrs by UPLC analysis; type: physicochemical
# [9] = Solubility in 100 mM bistrispropane buffer at pH 7.5 incubated for 18 hrs by UPLC analysis; type: physicochemical
# [10] = Solubility in 100 mM bistrispropane buffer at pH 8.0 incubated for 18 hrs by UPLC analysis; type: physicochemical
# [11] = biological target: T1, Amylin receptor AMY3; CALCR/RAMP3; test: Displacement of [125I]-labeled rat amylin from human amylin receptor expressed in BHK tkts13 whole cells co-expressing RAMP3 incubated for 60 mins by scintillation proximity assay; type: cell-based
pEC50 [1],pEC50 [2],solubility at 18 h [3],solubility at 18 h [4],solubility at 18 h [5],solubility at 18 h [6],solubility at 18 h [7],solubility at 18 h [8],solubility at 18 h [9],solubility at 18 h [10],pIC50 [11],SMILES
11.10,11.52,≥ 200 µM,≥ 200 µM,≥ 200 µM,≥ 200 µM,≥ 200 µM,≥ 200 µM,≥ 200 µM,≥ 200 µM,8.94,CC(C)C[C@H](NC(=O)[C@H](C)NC(=O)[C@H](C)NC(=O)[C@@H](NC(=O)[C@H](CO)NC(=O)[C@H](CC(C)C)NC(=O)[C@H](CCC(=O)O)NC(=O)[C@H](CO)NC(=O)[C@H](C)NC(=O)CC[C@H](NC(=O)CCCCCCCCCCCCC(=O)O)C(=O)O)[C@@H](C)O)C(=O)NCC(=O)N[C@@H](CCCNC(=N)N)C(=O)N[C@@H](CC(C)C)C(=O)N[C@@H](CO)C(=O)N[C@@H](C)C(=O)N[C@@H](CCC(=O)O)C(=O)N[C@@H](CC(C)C)C(=O)N[C@@H](Cc1cnc[nH]1)C(=O)N[C@@H](CCC(=O)O)C(=O)N[C@@H](CC(C)C)C(=O)N[C@@H](C)C(=O)N[C@H](C(=O)N[C@@H](CC(C)C)C(=O)N1CCC[C@H]1C(=O)N[C@@H](CCCNC(=N)N)C(=O)N[C@H](C(=O)N[C@@H](CCC(=O)O)C(=O)N[C@H](C(=O)NCC(=O)N1CCC[C@H]1C(=O)N[C@@H](CCC(=O)O)C(=O)N[C@@H](CO)C(=O)N1CCC[C@H]1C(N)=O)[C@@H](C)O)[C@@H](C)O)[C@@H](C)O ({C14 diacid-γGlu}-ASELSTAALGRLSAELHELATLPRTETGPESP-NH2)
11.05,10.89,≥ 200 µM,≥ 200 µM,≥ 200 µM,≥ 200 µM,≥ 200 µM,≥ 200 µM,≥ 200 µM,≥ 200 µM,9.37,CC(C)C[C@H](NC(=O)[C@H](C)NC(=O)[C@H](C)NC(=O)[C@@H](NC(=O)[C@H](CO)NC(=O)[C@H](CC(C)C)NC(=O)[C@H](CCC(N)=O)NC(=O)[C@H](CO)NC(=O)[C@H](C)NC(=O)CC[C@H](NC(=O)CCCCCCCCCCCCCCCCC(=O)O)C(=O)O)[C@@H](C)O)C(=O)NCC(=O)N[C@@H](CCCNC(=N)N)C(=O)N[C@@H](CC(C)C)C(=O)N[C@@H](CO)C(=O)N[C@@H](C)C(=O)N[C@@H](CCC(N)=O)C(=O)N[C@@H](CC(C)C)C(=O)N[C@@H](Cc1cnc[nH]1)C(=O)N[C@@H](CCC(=O)O)C(=O)N[C@@H](CC(C)C)C(=O)N[C@@H](C)C(=O)N[C@H](C(=O)N[C@@H](CC(C)C)C(=O)N1CCC[C@H]1C(=O)N[C@@H](CCCNC(=N)N)C(=O)N[C@H](C(=O)N[C@@H](CCC(=O)O)C(=O)N[C@H](C(=O)NCC(=O)N[C@@H](CO)C(=O)NCC(=O)N[C@@H](CO)C(=O)N1CCC[C@H]1C(N)=O)[C@@H](C)O)[C@@H](C)O)[C@@H](C)O ({C18 diacid-γGlu}-ASQLSTAALGRLSAQLHELATLPRTETGSGSP-NH2)
11.10,11.22,≥ 200 µM,≥ 200 µM,≥ 200 µM,≥ 200 µM,≥ 200 µM,≥ 200 µM,≥ 200 µM,≥ 200 µM,9.08,CC(C)C[C@H](NC(=O)[C@H](C)NC(=O)[C@H](C)NC(=O)[C@@H](NC(=O)[C@H](CO)NC(=O)[C@H](Cc1cnc[nH]1)NC(=O)[C@H](CCC(=O)O)NC(=O)[C@H](CO)NC(=O)[C@H](C)NC(=O)[C@H](CCC(=O)O)NC(=O)CCCCCCCCCCCCCCCCC(=O)O)[C@@H](C)O)C(=O)NCC(=O)N[C@@H](CCCNC(=N)N)C(=O)N[C@@H](CC(C)C)C(=O)N[C@@H](CO)C(=O)N[C@@H](C)C(=O)N[C@@H](CCC(=O)O)C(=O)N[C@@H](CC(C)C)C(=O)N[C@@H](Cc1cnc[nH]1)C(=O)N[C@@H](CCC(=O)O)C(=O)N[C@@H](CC(C)C)C(=O)N[C@@H](C)C(=O)N[C@H](C(=O)N[C@@H](CC(C)C)C(=O)N1CCC[C@H]1C(=O)N[C@@H](CCCNC(=N)N)C(=O)N[C@H](C(=O)N[C@@H](CCC(=O)O)C(=O)N[C@H](C(=O)NCC(=O)N1CCC[C@H]1C(=O)N[C@@H](CCC(=O)O)C(=O)N[C@@H](CO)C(=O)N1CCC[C@H]1C(N)=O)[C@@H](C)O)[C@@H](C)O)[C@@H](C)O ({C18 diacid}-EASEHSTAALGRLSAELHELATLPRTETGPESP-NH2)
10.82,11.05,≥ 200 µM,≥ 200 µM,≥ 200 µM,≥ 200 µM,≥ 200 µM,≥ 200 µM,≥ 200 µM,≥ 200 µM,8.88,CC(C)C[C@H](NC(=O)[C@H](C)NC(=O)[C@H](C)NC(=O)[C@@H](NC(=O)[C@H](Cc1cnc[nH]1)NC(=O)[C@H](CC(C)C)NC(=O)[C@H](CCC(=O)O)NC(=O)[C@H](CO)NC(=O)[C@H](C)NC(=O)[C@H](CCC(=O)O)NC(=O)CCCCCCCCCCCCCCCCC(=O)O)[C@@H](C)O)C(=O)NCC(=O)N[C@@H](CCCNC(=N)N)C(=O)N[C@@H](CC(C)C)C(=O)N[C@@H](CO)C(=O)N[C@@H](C)C(=O)N[C@@H](CCC(=O)O)C(=O)N[C@@H](CC(C)C)C(=O)N[C@@H](Cc1cnc[nH]1)C(=O)N[C@@H](CCC(=O)O)C(=O)N[C@@H](CC(C)C)C(=O)N[C@@H](C)C(=O)N[C@H](C(=O)N[C@@H](CC(C)C)C(=O)N1CCC[C@H]1C(=O)N[C@@H](CCCNC(=N)N)C(=O)N[C@H](C(=O)N[C@@H](CCC(=O)O)C(=O)N[C@H](C(=O)NCC(=O)N1CCC[C@H]1C(=O)N[C@@H](CCC(=O)O)C(=O)N[C@@H](CO)C(=O)N1CCC[C@H]1C(N)=O)[C@@H](C)O)[C@@H](C)O)[C@@H](C)O ({C18 diacid}-EASELHTAALGRLSAELHELATLPRTETGPESP-NH2)
11.15,11.30,≥ 200 µM,≥ 200 µM,≥ 200 µM,≥ 200 µM,≥ 200 µM,≥ 200 µM,≥ 200 µM,≥ 200 µM,8.83,CC[C@H](C)[C@H](NC(=O)[C@H](CCC(=O)O)NC(=O)[C@H](C)NC(=O)[C@H](CO)NC(=O)[C@H](CC(C)C)NC(=O)[C@H](CCCNC(=N)N)NC(=O)CNC(=O)[C@H](CC(C)C)NC(=O)[C@H](C)NC(=O)[C@H](C)NC(=O)[C@@H](NC(=O)[C@H](CO)NC(=O)[C@H](CC(C)C)NC(=O)[C@H](CCC(=O)O)NC(=O)[C@H](CO)NC(=O)[C@H](C)NC(=O)[C@H](CCC(=O)O)NC(=O)CCCCCCCCCCCCCCCCC(=O)O)[C@@H](C)O)C(=O)N[C@@H](Cc1cnc[nH]1)C(=O)N[C@@H](CCC(=O)O)C(=O)N[C@@H](CC(C)C)C(=O)N[C@@H](C)C(=O)N[C@H](C(=O)N[C@@H](CC(C)C)C(=O)N1CCC[C@H]1C(=O)N[C@@H](CCCNC(=N)N)C(=O)N[C@H](C(=O)N[C@@H](CCC(=O)O)C(=O)N[C@H](C(=O)NCC(=O)N1CCC[C@H]1C(=O)N[C@@H](CCC(=O)O)C(=O)N[C@@H](CO)C(=O)N1CCC[C@H]1C(N)=O)[C@@H](C)O)[C@@H](C)O)[C@@H](C)O ({C18 diacid}-EASELSTAALGRLSAEIHELATLPRTETGPESP-NH2)
